“And” between values parts separate entries of the source, which are not always exact repeats. Equal values may be shown once.
Test: Stability study of injectable trace element composition in parenteral nutrition admixtures (assay test for zinc, copper, selenium, manganese)
Type: physicochemical
Text: In order to establish stability data for parenteral nutrition admixed with the injectable compositions of trace elements, we conducted a stability study of injectable trace element composition (trace elements injectable composition, USP) in parenteral nutrition admixtures (assay test); a pH study of parenteral nutrition (PN) admixtures upon addition of injectable trace element composition (trace elements injectable composition, USP); a compatibility study of injectable trace element composition (trace elements injectable composition, USP) in parenteral nutrition admixtures; and a reduced inoculation antimicrobial effectiveness study for injectable trace element composition (trace elements injectable composition, USP) in parenteral nutrition admixtures. […]

Row | SMILES | Assay Day 0 | Assay Day 5 | Assay Day 7 | Assay Day 10 | Assay Day 14
1 | O.O.O.O.O.O=S(=O)([O-])[O-].[Cu+2] [Copper, cupric sulfate pentahydrate] | 109.7% | 98.7% and 98.8% | 97.8% | 99.9% | 105.5% and 106.0%
2 | O.O.O.O.O.O.O.O=S(=O)([O-])[O-].[Zn+2] [Zinc, zinc sulfate heptahydrate] | 96.5% and 98.5% | 93.9% and 94.4% | 93.8% and 96.5% | 97.0% and 96.2% | 96.0% and 96.3%
